We go through eleven compounds from ChEMBL document CHEMBL1201862, “PubChem BioAssay data set” (2004).

Among the test systems are SR; T47D; SNB-75; MDA-N; 786-0; SW-620; CCRF-CEM; PC-3; CAKI-1; HT-29; SF-539; Hs-578T; DU-145; MDA-MB-435; SK-MEL-2; MDA-MB-231; A498; NCI/ADR-RES; TK-10; RXF 393.
Assay in all cases: growth of human tumour cells (NCI), 48 h

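Exposure lasted 48 hours, with cells grown in 96-well plates and compounds tested at five concentrations. GI50 = concentration required for 50% inhibition of growth.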 The source made the active and inactive calls. Rule as the data show it: active = GI50 up to about 1.1 µM and inactive = higher.

On to `CNC1C(O)C(OC2C(N)CC(N)C(OC3OC(CN)=CCC3N)C2O)OCC1(C)O` (stereo unspecified), for which the GI50 in the test on SR, in the test with T47D, in the test on SNB-75, with MDA-N, in the test on 786-0 and in the test on SW-620 was > 100 µM (inactive) throughout. Moreover, the GI50 in the test with CCRF-CEM, with PC-3, in the test with CAKI-1, in the test on HT-29, in the test on SF-539 and in the test with Hs-578T was > 100 µM (inactive) each time. Besides, the GI50 in the test on DU-145, in the test on MDA-MB-435, in the test with SK-MEL-2, in the test with MDA-MB-231, in the test on A498 and in the test on NCI/ADR-RES was > 100 µM (inactive) in each case.

In the case of `COC(=O)/C=C(\C(=O)OC)c1cc(C)c2cc(C(C)C)ccc(C)c1-2`, the GI50 with SR is > 100 µM (inactive); in the test with T47D, 15.4 µM (inactive); in the test on MDA-N, 19.5 µM (inactive); in the test with 786-0 it was 75.5 µM (inactive); in the test with SW-620, 34 µM (inactive); in the test on CCRF-CEM, 71.4 µM (inactive). The GI50 in the test on PC-3 was 29 µM (inactive); in the test with CAKI-1, 47.9 µM (inactive); with HT-29 it was 13.3 µM (inactive); in the test with SF-539 it was 30.5 µM (inactive); in the test on TK-10, 83.9 µM (inactive); with Hs-578T it was 42.7 µM (inactive). Further, the GI50 was 60.3 µM (inactive) in the test on DU-145; 30 µM (inactive) in the test on MDA-MB-435; 34.8 µM (inactive) with SK-MEL-2; 41.4 µM (inactive) in the test with RXF 393; 24.7 µM (inactive) in the test on MDA-MB-231; > 100 µM (inactive) in the test with A498. In the test with NCI/ADR-RES, the GI50 is 32 µM (inactive).

Turning to `COc1ccc2c(c1)C(=O)C1CCC(=O)N1C2c1ccc2c(c1)OCO2` (stereo unspecified), the GI50 in the test with SR is 4.56 µM (inactive); in the test on T47D, 14.2 µM (inactive); in the test with SNB-75, 14.9 µM (inactive); in the test with MDA-N it was 8.32 µM (inactive); in the test on 786-0, 24.8 µM (inactive); with SW-620, 5.36 µM (inactive). Also, the GI50 in the test with CCRF-CEM is 3.09 µM (inactive); in the test with PC-3, 4.2 µM (inactive); with CAKI-1 it was 19.7 µM (inactive); in the test on HT-29 it was 4.12 µM (inactive); with SF-539, 23 µM (inactive); in the test with TK-10, 30.8 µM (inactive). For the same compound, the GI50 was 27.2 µM (inactive) with Hs-578T; 18.2 µM (inactive) in the test with DU-145; 6.21 µM (inactive) in the test with MDA-MB-435; 13 µM (inactive) in the test on SK-MEL-2; 12.2 µM (inactive) with MDA-MB-231; 17 µM (inactive) in the test on A498. For the same compound, the GI50 in the test with NCI/ADR-RES was 22.7 µM (inactive).

As to `CN(C(=O)Cc1ccccc1)n1cnn(CC(=O)OC(C)(C)C)c1=S`, the GI50 in the test with SR, with T47D, with SNB-75, in the test with MDA-N, in the test with 786-0 and in the test with SW-620 was > 10 µM (inactive) each time. In addition, the GI50 in the test with CCRF-CEM, in the test on PC-3, in the test with CAKI-1, with HT-29, in the test with SF-539 and with TK-10 was > 10 µM (inactive) each time. In addition, the GI50 in the test on Hs-578T, in the test with DU-145, in the test with MDA-MB-435, in the test on MDA-MB-231, in the test with A498 and in the test with NCI/ADR-RES was > 10 µM (inactive) throughout.

As to `COC1=CC(=O)c2c(O)c3c(c(O)c2C1=O)OC1(Oc2c(cc4cc(C)oc(=O)c4c2O)CC1O)C3O` (stereo unspecified), the GI50 was > 100 µM (inactive) with SR; 38.1 µM (inactive) in the test on T47D; 60.4 µM (inactive) with SNB-75; 20.8 µM (inactive) with MDA-N; 40 µM (inactive) in the test on 786-0; 53.7 µM (inactive) in the test on SW-620. The GI50 was 30.1 µM (inactive) in the test with CCRF-CEM; 38.4 µM (inactive) with PC-3; 21.7 µM (inactive) with CAKI-1; 48.4 µM (inactive) in the test on HT-29; 44.5 µM (inactive) in the test with SF-539; 50.9 µM (inactive) with TK-10. For the same compound, the GI50 was 91.8 µM (inactive) in the test on Hs-578T; 33.8 µM (inactive) with DU-145; 33.7 µM (inactive) in the test on MDA-MB-435; 39.7 µM (inactive) in the test with SK-MEL-2; 24 µM (inactive) in the test on MDA-MB-231; 47.9 µM (inactive) in the test with A498. In addition, the GI50 in the test on NCI/ADR-RES was 46.9 µM (inactive).

As for `Nc1nc(Nc2ccc(Cl)cc2)sc1C(=O)c1c[nH]c2ccccc12`, the GI50 in the test on SR was 5.74 µM (inactive); with T47D, 8.32 µM (inactive); in the test on SNB-75 it was 5.66 µM (inactive); in the test on MDA-N, 12.4 µM (inactive); with 786-0 it was 4.66 µM (inactive); with SW-620, 15.7 µM (inactive). The GI50 was 15 µM (inactive) in the test on CCRF-CEM; 14 µM (inactive) in the test on PC-3; 6.78 µM (inactive) in the test with HT-29; 15.8 µM (inactive) with SF-539; 13 µM (inactive) in the test with TK-10; 21.6 µM (inactive) in the test with Hs-578T. In addition, the GI50 is 14.2 µM (inactive) in the test on DU-145; 12.9 µM (inactive) in the test on MDA-MB-435; 14.6 µM (inactive) in the test with SK-MEL-2; 9.27 µM (inactive) in the test with RXF 393; 17.9 µM (inactive) in the test on MDA-MB-231; 7.94 µM (inactive) with A498. In addition, in the test on NCI/ADR-RES, the GI50 is 12.4 µM (inactive).

Consider `CC(NC(=O)C(N)CC(=O)O)NC(=O)N(C)C(C)(C)C` (stereo unspecified), for which the GI50 with SR, in the test on T47D, in the test on SNB-75, in the test on MDA-N, in the test with 786-0 and in the test on SW-620 was > 100 µM (inactive) each time. Besides, the GI50 with CCRF-CEM, in the test on PC-3, with CAKI-1, in the test with HT-29, with SF-539 and with TK-10 was > 100 µM (inactive) in each case. The GI50 with Hs-578T, in the test on DU-145, in the test with MDA-MB-435, in the test with SK-MEL-2, in the test on RXF 393 and in the test with MDA-MB-231 was > 100 µM (inactive) each time. The GI50 in the test on NCI/ADR-RES was > 100 µM (inactive).

With `COC(=O)/C=C\[C@@H]1[C@H](C)N1S(=O)(=O)c1ccc(C)cc1` (stereo partly specified), the GI50 with SR, with T47D, in the test with MDA-N, in the test on 786-0, in the test with SW-620 and in the test with CCRF-CEM was > 100 µM (inactive) throughout. Also, the GI50 in the test with PC-3, with CAKI-1, in the test on HT-29, with SF-539, in the test with TK-10 and in the test on Hs-578T was > 100 µM (inactive) each time. Moreover, the GI50 in the test on DU-145, in the test with MDA-MB-435, with SK-MEL-2, with RXF 393, with MDA-MB-231 and with A498 was > 100 µM (inactive) throughout. For the same compound, in the test with NCI/ADR-RES, the GI50 was > 100 µM (inactive).

`COc1cccc(-c2cc(O)c3c(C)cc(C)nc3n2)c1`: the GI50 with SR is 0.136 µM (active); with T47D, 14.5 µM (inactive); in the test on SNB-75, 0.167 µM (active); with MDA-N it was 0.067 µM (active); in the test with 786-0, 0.435 µM (active); with SW-620 it was 0.333 µM (active). Moreover, the GI50 was 0.431 µM (active) in the test on CCRF-CEM; 0.304 µM (active) in the test on PC-3; 0.34 µM (active) in the test with HT-29; 0.455 µM (active) with SF-539; 40.8 µM (inactive) in the test with TK-10; 0.538 µM (active) in the test on Hs-578T. Besides, the GI50 in the test on DU-145 was 1.21 µM (inactive); with MDA-MB-435 it was 0.0512 µM (active); in the test with SK-MEL-2, 0.615 µM (active); with RXF 393, 1.29 µM (inactive); with MDA-MB-231, 1.6 µM (inactive); with A498 it was 0.419 µM (active). The GI50 in the test on NCI/ADR-RES was 1.13 µM (inactive).

Take `Cc1ccc(-c2n[nH]c(=O)n2/N=C\c2ccccc2O)cc1`: the GI50 was > 100 µM (inactive) with SR; 94 µM (inactive) in the test with T47D; > 100 µM (inactive) in the test on SNB-75; > 100 µM (inactive) in the test on MDA-N; > 100 µM (inactive) in the test with 786-0; > 100 µM (inactive) in the test with SW-620. In addition, the GI50 in the test with CCRF-CEM, in the test with PC-3, in the test on CAKI-1, in the test on HT-29, in the test on SF-539 and in the test on TK-10 was > 100 µM (inactive) each time. Also, the GI50 in the test with Hs-578T is 51.4 µM (inactive); in the test on DU-145 it was > 100 µM (inactive); in the test with MDA-MB-435, > 100 µM (inactive); in the test with SK-MEL-2, > 100 µM (inactive); in the test on RXF 393, 57.8 µM (inactive); in the test on MDA-MB-231 it was 68.5 µM (inactive). In the test with NCI/ADR-RES, the GI50 was > 100 µM (inactive).

As for `CCOC(=O)c1c(C)noc1/N=N/N(CCO)CCO`, the GI50 with SR was 19.9 µM (inactive); in the test with T47D it was 10.8 µM (inactive); with SNB-75, 10.2 µM (inactive); in the test on MDA-N, 27.7 µM (inactive); with 786-0, 38.2 µM (inactive); in the test with SW-620 it was 28.3 µM (inactive). Moreover, the GI50 in the test on CCRF-CEM was 16.9 µM (inactive); in the test with PC-3 it was 31.8 µM (inactive); in the test with CAKI-1, 61 µM (inactive); in the test on HT-29, 33.4 µM (inactive); with TK-10 it was 56.1 µM (inactive); with Hs-578T, 63.4 µM (inactive). Further, the GI50 was 49.7 µM (inactive) in the test on DU-145; 34 µM (inactive) with MDA-MB-435; 15.1 µM (inactive) in the test with RXF 393; 38.9 µM (inactive) in the test with MDA-MB-231; 21.7 µM (inactive) with A498; 35.4 µM (inactive) in the test on NCI/ADR-RES.
